How the values were obtained:
Type in all cases: ADME, organism-based
[1] = AUC (0 to 4 hrs) in mouse at 20 mg/kg; design: time < 4 hr, dose 20 mg/kg; conditions: plasma
[2] = Oral bioavailability in mouse at 75 mg/kg; conditions: in vivo
[3] = Oral bioavailability in rat at 75 mg/kg; conditions: in vivo
[4] = Total clearance in mouse at 5 mg/kg, iv and 75 mg/kg, po; conditions: in vivo
[5] = Total clearance in rat at 5 mg/kg, iv and 75 mg/kg, po; conditions: in vivo
[6] = Volume of distribution at steady state in mouse at 5 mg/kg, iv and 75 mg/kg, po; conditions: in vivo, read-out: Vdss
[7] = Volume of distribution at steady state in rat at 5 mg/kg, iv and 75 mg/kg, po; conditions: in vivo, read-out: Vdss
[8] = Half life in mouse at 5 mg/kg, iv and 75 mg/kg, po; conditions: in vivo
[9] = Half life in rat at 5 mg/kg, iv and 75 mg/kg, po; conditions: in vivo

| AUC(0-t) at 4 h [1] | Compound | further results |
| --- | --- | --- |
| 17.7 µM·h | Cc1cc(N2CCN(CCF)CC2)cc2[nH]c(-c3c(NC[C@@H](O)c4cccc(Cl)c4)cc[nH]c3=O)nc12 | – |
| 22.1 µM·h | Cc1cc(N2CCN(CCC#N)CC2)cc2nc(-c3c(NC[C@@H](O)c4cccc(Cl)c4)cc[nH]c3=O)[nH]c12 | – |
| 11.1 µM·h | COCCN1CCN(c2cc(C)c3nc(-c4c(NC[C@@H](O)c5cccc(Cl)c5)cc[nH]c4=O)[nH]c3c2)CC1 | bioavailability [2]: 26%; bioavailability [3]: 26%; clearance [4]: 25.2 mL/min/kg; clearance [5]: 27.8 mL/min/kg; Vd [6]: 4.9 L/kg; Vd [7]: 2.9 L/kg; half-life [8]: 2.9 h; half-life [9]: 1.9 h |
| 1.6 µM·h | CNC(=O)CN1CCN(c2cc(C)c3nc(-c4c(NC[C@@H](O)c5cccc(Cl)c5)cc[nH]c4=O)[nH]c3c2)CC1 | – |
| 11.4 µM·h | Cc1cc(N2CCN(CCCF)CC2)cc2[nH]c(-c3c(NC[C@@H](O)c4cccc(Cl)c4)cc[nH]c3=O)nc12 | – |
| 25.3 µM·h | CCOC(=O)N1CCN(c2cc(C)c3nc(-c4c(NC[C@@H](O)c5cccc(Cl)c5)cc[nH]c4=O)[nH]c3c2)CC1 | – |
| 10.3 µM·h | Cc1cc(N2CCN(CC#N)CC2)cc2[nH]c(-c3c(NC[C@@H](O)c4cccc(Cl)c4)cc[nH]c3=O)nc12 | – |
| 4.5 µM·h | Cc1cc(N2CCN(C(=O)CCCF)CC2)cc2[nH]c(-c3c(NC[C@@H](O)c4cccc(Cl)c4)cc[nH]c3=O)nc12 | – |
| 57.1 µM·h | COC(=O)N1CCN(c2cc(C)c3nc(-c4c(NC[C@@H](O)c5cccc(Cl)c5)cc[nH]c4=O)[nH]c3c2)CC1 | – |
| 26.5 µM·h | Cc1cc(N2CCNCC2)cc2[nH]c(-c3c(NC[C@@H](O)c4cccc(Cl)c4)cc[nH]c3=O)nc12 | – |
| 3.4 µM·h | Cc1cc(N2CCN(C)CC2)cc2[nH]c(-c3c(NC[C@@H](O)c4cccc(Cl)c4)cc[nH]c3=O)nc12 | – |
| 7.2 µM·h | Cc1cc(N2CCN(S(C)(=O)=O)CC2)cc2[nH]c(-c3c(NC[C@@H](O)c4cccc(Cl)c4)cc[nH]c3=O)nc12 | – |
| 1.4 µM·h | Cc1cc(N2CCN(CC(=O)NCCF)CC2)cc2[nH]c(-c3c(NC[C@@H](O)c4cccc(Cl)c4)cc[nH]c3=O)nc12 | – |
| 1 µM·h | CCN1CCN(c2cc(C)c3nc(-c4c(NC[C@@H](O)c5cccc(Cl)c5)cc[nH]c4=O)[nH]c3c2)CC1 | – |
| 3.1 µM·h | CC(=O)N1CCN(c2cc(C)c3nc(-c4c(NC[C@@H](O)c5cccc(Cl)c5)cc[nH]c4=O)[nH]c3c2)CC1 | – |
| 8.3 µM·h | Cc1cc(N2CCN(C(=O)OC(C)(C)C)CC2)cc2[nH]c(-c3c(NC[C@@H](O)c4cccc(Cl)c4)cc[nH]c3=O)nc12 | – |
| 50 µM·h | Cc1cc(N2CCOCC2)cc2[nH]c(-c3c(NC[C@@H](O)c4cccc(Cl)c4)cc[nH]c3=O)nc12 | – |

From ChEMBL document CHEMBL1157113, “Insulin-like growth factor-1 receptor (IGF-1R) kinase inhibitors: SAR of a series of 3-[6-(4-substituted-piperazin-1-yl)-4-methyl-1H-benzimidazol-2-yl]-1H-pyridine-2-one” (Bioorg Med Chem Lett, 2010)
